Where two headings read alike, the source gives them in different places.
Tests used:
[1] = acute toxicity in white mice after oral or intravenous administration; type: in vivo; conditions: observation time 14 days; for animals died: 250 mgm/kg p.o.; for LD50 at 336 h: mouse, in vivo
Procedure: 4. The acute toxicities of the compounds were determined in white mice (observation time: 14 days) after oral or intravenous adminstration. The LD50 was calculated from the percentage of animals which died after different doses within the observation time [see Finney et al in Probit Analysis, third Edition, Cambridge (1971)].

[2] = test system: bleeding time; assay: prolonging effect upon the bleeding time, method of Duke; type: in vivo; conditions: 10 mgm/kg per os, mice, vs untreated animals
Procedure: 3. The prolonging effect upon the bleeding time was ascertained by the method of Duke, J. Amer. Med. Assoc. 15, 1185 (1910). 10 mgm/kg of the test compound were given per os to non-anesthetized mice. After 1 or 3 hours, about 0.5 mm was cut off from the tail of each animal, and the exuded blood was carefully soaked up with filter paper at intervals of 30 seconds. The number of drops of blood so obtained was used as a measure for the bleeding time compared to untreated animals (5 animals/test).

[3] = test system: platelet stickiness; assay: retention test according to Morris (inhibition of platelet stickiness on glass beads); type: cell-based; conditions: human citrate-blood, 10 min at 37°C
Procedure: 1. The inhibiting effect upon the platelet stickiness was determined by means of the so-called retention test according to Morris [see E. Deutsch et al, 1. Internationales Symposium uber Stoffwechsel und Membranpermeabilitat von Erythrocyten und Thrombocyten, Vienna, Austria (1969); Georg Thieme Verlag, Stuttgart, Germany]. 1 ml of human citrate-blood is pipetted into each of a number of small test tubes, and the test compound is added to various final concentrations. The tubes are incubated for 10 minutes at 37°C. 1 gm of glass beads (glass beads for gas-chromatography) is added to half of the tubes. Finally, the closed tubes are attached to a vertical wheel and rotated for 1 minute. By this means good contact is obtained between the glass beads and the blood. The tubes are then allowed to stand at room temperature for another hour, after which time a satisfactory sedimentation of erythrocytes has taken place. 0.01 ml of the supernatant plasma is removed, diluted to 1:8,000 with celloscope solution, and the platelet count is read in the celloscope.

[4] = test system: thrombocyte aggregation; assay: inhibition of thrombocyte aggregation induced by collagen; type: cell-based, human; conditions: platelet-rich plasma
Source text: (§1) 2. The inhibiting action upon thrombocyte aggregation was ascertained by the method of Born and Cross, J. Physiol. 170, 397 (1964), in the platelet-rich plasma of healthy human test subjects, by photometrically ascertaining and registering the rate of decrease of the optical density after addition of (a) adenosine diphosphate (ADP). The angle of inclination of the density curve is a measure of the rate of aggregration (V max.). The point on the curve which corresponded to the greatest light-permeability was used for calculation of the optical density (o.D.).
(b) Aggregration with collagen
The procedure is the same as described under (a). To provoke aggregation commercial collagen was used, containing 1 mgm of collagen fibrils per 1 ml. To provoke maximum aggregation, about 0.01 ml of this collagen solution was added to 1 ml of platelet-rich plasma. Previously, the plasma was incubated at 37°C with varying quantities of test compound for 10 minutes each: […]

[5] = test system: thrombocyte aggregation; assay: inhibition of thrombocyte aggregation induced by adenosine diphosphate (ADP), Born and Cross; type: cell-based; conditions: 10 min, platelet-rich human plasma, 10 min at 37°C, read-out: ED50 (concentration which reduces the maximum light-permeability after addition of ADP by 50%)
Source text: as §1
The ADP-doses were held to a minimum, but still sufficiently large to result in an irreversible aggregation. Prior to addition of ADP, each plasma sample was incubated for 10 minutes at 37°C with various amounts of the test compound. From the data thus obtained, the median effective amount of test compound (ED50), i.e. the concentration which reduces the maximum light-permeability in platelet-rich plasma after addition of ADP by 50%, was calculated.

[6] = po, read-out: Toxicity (p.o. bound)

**Q.** What does the source list for `CN1CCN(c2cc3ccccc3c(N3CCOCC3)n2)CC1` [C, 1-morpholino-3-(N'-methyl-piperazino)-isoquinoline]?
**A.** animals died [1]: 2 out of 5; LD50 at 336 h [1, 6]: > 250 mg/kg; % Prolongation of bleeding time ([2]; 1 hour after application): 85%; Inhibition in % (platelet stickiness) ([3]; 5×10^^-5 mol/liter): 50%

**Q.** Which animals died [1] does the source give for `Cc1cccc2c(N3CC[S+]([O-])CC3)nc(N3CCNCC3)cc12` [D, 1-(1-oxido-thiomorpholino)-3-piperazino-5-methyl-isoquinoline] here?
**A.** Its animals died is 0 out of 5.

**Q.** And the LD50 at 336 h [1, 6]?
**A.** Its LD50 at 336 h is greater than 250 mg/kg.

**Q.** And the “% Prolongation of bleeding time” value ([2]; 1 hour after application)?
**A.** The value was 78%.

**Q.** And the “% inhibition of O.D.” value ([4]; 3.10^^-5 mol/liter)?
**A.** Its value is 100%.

**Q.** What about the “% inhibition of Vmax” value ([4]; 3.10^^-5 mol/liter) of the same compound?
**A.** The value was 100%.

**Q.** And the “Inhibition in % (platelet stickiness)” value ([3]; 10^^-4 mol/liter)?
**A.** Its value is 86%.

**Q.** Which “% Prolongation of bleeding time” value ([2]; 1 hour after application) does the source give for `COc1cccc2c(N3CC[S+]([O-])CC3)nc(N3CCNCC3)cc12` [F, 1-(1-oxido-thiomorpholino)-3-piperazino-5-methoxy-isoquinoline] here?
**A.** The value was 117%.

**Q.** What about the “% inhibition of O.D.” value ([4]; 10^^-5 mol/liter) of the same compound?
**A.** The value was 100%.

**Q.** What about the “% inhibition of Vmax” value ([4]; 10^^-5 mol/liter) of the same compound?
**A.** Its value is 100%.

**Q.** And the “Inhibition in % (platelet stickiness)” value ([3]; 10^^-4 mol/liter)?
**A.** Its value is 70%.

**Q.** Which LD50 at 336 h ([1]; iv, read-out: LD50) does the source give for `[O-][S+]1CCN(c2nc(N3CCNCC3)cc3ccccc23)CC1` [B, 1-(1-oxido-thiomorpholino)-3-piperazino-isoquinoline] here?
**A.** Its LD50 at 336 h is 123 mg/kg.

**Q.** And the LD50 at 336 h ([1]; po, read-out: LD50)?
**A.** The LD50 at 336 h was 940 mg/kg.

**Q.** And the “% Prolongation of bleeding time” value ([2]; 1 hour after application)?
**A.** Its value is 83%.

**Q.** And the “% Prolongation of bleeding time” value ([2]; 3 hours after application)?
**A.** Its value is 16%.

**Q.** What about the “% inhibition of O.D.” value ([4]; 3.10^^-5 mol/liter) of the same compound?
**A.** Its value is 96%.

**Q.** What about the “% inhibition of Vmax” value ([4]; 3.10^^-5 mol/liter) of the same compound?
**A.** Its value is 96%.

**Q.** What about the “% inhibition of O.D.” value ([4]; 10^^-5 mol/liter) of the same compound?
**A.** Its value is 80%.

**Q.** And the “% inhibition of Vmax” value ([4]; 10^^-5 mol/liter)?
**A.** The value was 75%.

**Q.** What about the IC50 [5] of the same compound?
**A.** Its IC50 is 30 µM.

**Q.** And the “Inhibition in % (platelet stickiness)” value ([3]; 3×10^^-5 mol/liter)?
**A.** Its value is 33%.

**Q.** With `[O-][S+]1CCN(c2nc(N3CCNCC3)cc3c(Cl)cccc23)CC1` [Compound E, 1-(1-oxido-thiomorpholino)-3-piperazino-5-chloro-isoquinoline] as the compound, how does the animals died [1] read?
**A.** The animals died was 0 out of 5.

**Q.** And the LD50 at 336 h [1, 6]?
**A.** The LD50 at 336 h was greater than 250 mg/kg.

**Q.** What about the “% Prolongation of bleeding time” value ([2]; 1 hour after application) of the same compound?
**A.** The value was 146%.

**Q.** And the “% inhibition of O.D.” value ([4]; 10^^-5 mol/liter)?
**A.** Its value is 100%.

**Q.** What about the “% inhibition of Vmax” value ([4]; 10^^-5 mol/liter) of the same compound?
**A.** The value was 100%.

**Q.** What about the “Inhibition in % (platelet stickiness)” value ([3]; 10^^-4 mol/liter) of the same compound?
**A.** The value was 92%.

**Q.** Which results are given for `c1ccc2c(N3CCSCC3)nc(N3CCNCC3)cc2c1` [A, 1-thiomorpholino-3-piperazino-isoquinoline]?
**A.** % Prolongation of bleeding time ([2]; 1 hour after application): 90%; % inhibition of O.D. ([4]; 10^^-4 mol/liter): 100%; % inhibition of Vmax ([4]; 10^^-4 mol/liter): 100%; % inhibition of O.D. ([4]; 10^^-5 mol/liter): 62%; % inhibition of Vmax ([4]; 10^^-5 mol/liter): 51%; Inhibition in % (platelet stickiness) ([3]; 3×10^^-5 mol/liter): 18%

From US3975524A, “3-Piperazino-isoquinolines and salts thereof” (Boehringer Ingelheim GmbH, priority 1974, dated 1976)
